Among the data in US4455419A, “2'-Modified kanamycins and production thereof” (Zaidan Hojin Biseibutsu Kagaku Kenkyu Kai, priority 1981, dated 1984) are MIC values, retold here.

Each structure is given as a SMILES string. Converted amounts (≈) assume the structure as drawn. Where two headings read alike, the source gives them in different places.

Common to all, as to test: Minimum inhibitory concentration, standard serial dilution method
Common to all, as to format: cell-based

For test [1], the system named is Pseudomonas aeruginosa IAM-1007. Conditions: read-out: Minimum Inhibitory Concentrations. From the text:
(§1) For comparison purpose, the minimum inhibitory concentrations (mcg/ml) of the parent compound, kanamycin A are also shown in Table II.

Test [2] relates to Staphylococcus epidermidis 109. Conditions: read-out: Minimum Inhibitory Concentrations.
Source text: as §1

Test [3] has as its system Staphylococcus aureus Rosenbach FDA 209-OJC-1. Conditions: read-out: Minimum Inhibitory Concentrations.
Source text: as §1

Test [4] relates to Klebsiella pneumoniae PCI-602. The settings on record: read-out: Minimum Inhibitory Concentrations.
Source text: as §1

For test [5], the system named is Escherichia coli JR66/W677 (A-20683). The settings on record: read-out: Minimum Inhibitory Concentrations.
Source text: as §1

Another test concerns Escherichia coli No. 29. The settings on record: read-out: Minimum Inhibitory Concentrations.
Source text: as §1

The test system of test [6] is Pseudomonas aeruginosa E-2 IAM-1007. The settings on record: read-out: Minimum Inhibitory Concentrations.
Source text: as §1

In test [7] the test system is Serratia marcescens No. 1. Conditions: read-out: Minimum Inhibitory Concentrations.
Source text: as §1

Test [8] deals with Salmonela typhimlium LT-2. Conditions: 24 h, read-out: Minimum Inhibitory Concentrations.
Source text: as §1

For another test, the system named is Providencia morgani Kono. Conditions: read-out: Minimum Inhibitory Concentrations.
Source text: as §1

The mark [9] stands for this setting: Escherichia coli JR66/W677 (A-20683), nutrient agar, 37° C., 24 hours.
Setting [10] is: Escherichia coli No. 29, nutrient agar, 37° C., 24 hours.
Where [11] appears, read: Pseudomonas aeruginosa, IAM1007, 24 h.
The mark [12] stands for this setting: Staphylococcus epidermidis, 109, 24 h.
Where [13] appears, read: Staphylococcus aureus, FDA209, 24 h.
[14] abbreviates: Klebsiella pneumoniae, PCI602, 24 h.
The mark [15] stands for this setting: Serratia marcescens, NO.1, 24 h.

Regarding `NC[C@H]1O[C@H](O[C@H]2[C@H](O)[C@@H](O[C@H]3O[C@H](CO)[C@@H](O)[C@H](N)[C@H]3O)[C@H](N)C[C@@H]2N)C[C@@H](O)[C@@H]1O` [2'-Deoxykanamycin A, 2'-deoxykanamycin A], the MIC in test [1] (IAM1007, Pseudomonas aeruginosa IAM-1007, nutrient agar, 37° C., 24 hours) is 1.56 µg/mL (≈ 3.33 µM); in test [2] (Staphylococcus epidermidis 109, nutrient agar, 37° C., 24 hours) it was 0.2 µg/mL (≈ 0.427 µM); in [3] (FDA209, Staphylococcus aureus Rosenbach FDA 209-OJC-1, nutrient agar, 37° C., 24 hours) it was 0.05 µg/mL (≈ 0.107 µM); in [4] (PCI602, Klebsiella pneumoniae PCI-602, nutrient agar, 37° C., 24 hours), 0.78 µg/mL (≈ 1.66 µM); in test [5] (setting [9]), 50 µg/mL (≈ 107 µM); in the test with Escherichia coli No. 29 (setting [10]) it was 0.39 µg/mL (≈ 0.832 µM). Also, the MIC in [6] (IAM1007, Pseudomonas aeruginosa E-2 IAM-1007, nutrient agar, 37° C., 24 hours) came out at 6.25 µg/mL (≈ 13.3 µM); in test [7] (Serratia marcescens No. 1, nutrient agar, 37° C., 24 hours) it was 0.78 µg/mL (≈ 1.66 µM); in test [8], 0.78 µg/mL (≈ 1.66 µM); with Providencia morgani Kono (Providencia morgani Kono, nutrient agar, 37° C., 24 hours), 0.78 µg/mL (≈ 1.66 µM).

Regarding `NC[C@H]1O[C@H](O[C@H]2[C@H](O)[C@@H](O[C@H]3O[C@H](CO)[C@@H](O)[C@H](N)[C@H]3O)[C@H](N)C[C@@H]2N)[C@@H](O)[C@@H](O)[C@@H]1O` [2'-Epikanamycin A, 2'-epikanamycin A], the MIC in test [1] (setting [11]) was 50 µg/mL (≈ 103 µM); in test [2] (setting [12]), 25 µg/mL (≈ 51.6 µM); in test [3] (setting [13]) it was 0.39 µg/mL (≈ 0.805 µM); in test [4] (setting [14]), 6.25 µg/mL (≈ 12.9 µM); in [5] (setting [9]) it was above 100 µg/mL; in the test with Escherichia coli No. 29 (Escherichia coli, NO.29, 24 h), 6.25 µg/mL (≈ 12.9 µM). Also, the MIC in [6] (setting [11]) was above 100 µg/mL; in test [7] (setting [15]) it was 12.5 µg/mL (≈ 25.8 µM); in test [8], 6.25 µg/mL (≈ 12.9 µM); with Providencia morgani Kono (Providencia, 24 h), 6.25 µg/mL (≈ 12.9 µM).

In the case of `NC[C@H]1O[C@H](O[C@H]2[C@H](O)[C@@H](O[C@H]3O[C@H](CO)[C@@H](O)[C@H](N)[C@H]3O)[C@H](N)C[C@@H]2N)[C@@H](N)[C@@H](O)[C@@H]1O` [2'-Epikanamycin B, 2'-epikanamycin B], the MIC was above 100 µg/mL in test [1] (setting [11]); 50 µg/mL (≈ 103 µM) in test [2] (setting [12]); 1.56 µg/mL (≈ 3.23 µM) in test [3] (setting [13]); 50 µg/mL (≈ 103 µM) in test [4] (setting [14]); above 100 µg/mL in test [5] (Escherichia coli, 24 h); 50 µg/mL (≈ 103 µM) with Escherichia coli No. 29 (Escherichia coli, NO.29, 24 h). Further, the MIC in test [6] (setting [11]) was above 100 µg/mL; in test [7] (setting [15]), 100 µg/mL (≈ 207 µM); in [8] it was 50 µg/mL (≈ 103 µM); in the test with Providencia morgani Kono (Providencia, 24 h), 50 µg/mL (≈ 103 µM).

As to `NC[C@H]1O[C@H](O[C@H]2[C@H](O)[C@@H](O[C@H]3O[C@H](CO)[C@@H](O)[C@H](N)[C@H]3O)[C@H](N)C[C@@H]2N)[C@H](O)[C@@H](O)[C@@H]1O` [Kanamycin A, kanamycin A, reference compound], the MIC in test [1] (setting [11]) is 12.5 µg/mL (≈ 25.8 µM); in [2] (setting [12]), 3.13 µg/mL (≈ 6.46 µM); in test [3] (setting [13]), 0.1 µg/mL (≈ 0.206 µM); in [4] (setting [14]) it was 1.56 µg/mL (≈ 3.22 µM); in [5] (setting [9]), above 100 µg/mL; with Escherichia coli No. 29 (setting [10]), 0.78 µg/mL (≈ 1.61 µM). For the same compound, the MIC in test [6] (setting [11]) amounted to 50 µg/mL (≈ 103 µM); in [7] (setting [15]), 3.13 µg/mL (≈ 6.46 µM); in test [8] it was 1.56 µg/mL (≈ 3.22 µM); in the test with Providencia morgani Kono (Providencia, 24 h), 3.13 µg/mL (≈ 6.46 µM).
